Data published in patent US20200392116A1, “SUBSTITUTED HETEROCYCLES AS c-MYC TARGETING AGENTS” (NORTHWESTERN UNIVERSITY, priority 2019, published 2020).

Assay: Potency code of Table 2 (assay not stated)

Row | Compound | Potency code
1 | C#CCOc1ccc(COc2ccc(-c3cc(C(F)(F)F)n[nH]3)c(O)c2-c2cc(C(F)(F)F)cc(C(F)(F)F)c2)cc1 [NUCC-0201219] | ++++ (<10 ++++)
2 | CCc1ccc(Oc2c(-c3ccc(OCc4ccc(OC)cc4)cc3O)nn(C)c2C(F)(F)F)cc1 [NUCC-0196358] | + (>40 +)
3 | Cn1nc(-c2ccc(OCc3ccc([N+](=O)[O-])cc3)c(-c3cncc(C(F)(F)F)c3)c2O)cc1C(F)(F)F [NUCC-0201654] | + (>40 +)
4 | Cc1ccc(-c2c[nH]nc2-c2ccc(OCc3ccc(Cl)cc3)cc2O)cc1 [NUCC-0196345] | + (>40 +)
5 | Oc1cc(OCc2ccc(Cl)cc2)ccc1-c1cc(C(F)(F)F)[nH]n1 [NUCC-0196313] | ++++ (<10 ++++)
6 | Cn1nc(C(F)(F)F)cc1-c1ccc(OCc2ccc(Cl)cc2)c(-c2ccc(C(F)(F)F)cc2Cl)c1O [NUCC-0200738] | +++ (10-30 +++)
7 | Oc1ccc(OCc2ccc(Cl)cc2)cc1-c1[nH]nc(C(F)(F)F)c1-c1ccccc1Cl [NUCC-0200576] | ++++ (<10 ++++)
8 | Oc1ccc(OCc2ccc(Cl)cc2)cc1-c1[nH]nc(C(F)(F)F)c1-c1ccc(F)cc1 [NUCC-0200575] | ++++ (<10 ++++)
9 | Cn1nc(C(F)(F)F)cc1-c1ccc(OCc2ccc(Cl)cc2)c(-c2ccc(Cl)c(C(F)(F)F)c2)c1O [NUCC-0200975] | + (>40 +)
10 | O=C(CCc1cn(CCOCCOCCOCC(=O)Nc2cccc3c2C(=O)N(C2CCC(=O)NC2=O)C3=O)nn1)NCCOc1ccc(-c2cc(C(F)(F)F)n[nH]2)c(O)c1-c1cncc(C(F)(F)F)c1 (centres unmarked) [NUCC-0201660] | + (>40 +)
11 | Cn1nc(-c2ccc(OCc3ccc(F)cc3)c(-c3cc(C(F)(F)F)cc(C(F)(F)F)c3)c2O)cc1C(F)(F)F [NUCC-0201035] | + (>40 +)
12 | Cc1ccc(C)c(Oc2c[nH]nc2-c2ccc(OCc3ccc4ccccc4c3)cc2O)c1 [NUCC-0196290] | + (>40 +)
13 | COc1ccc(-c2cc(C(F)(F)F)nn2C)c(O)c1-c1cc(C(F)(F)F)cc(C(F)(F)F)c1 [NUCC-0201222] | +++ (10-30 +++)
14 | Cn1ncc(-c2ccoc2)c1-c1ccc(OCc2ccc(Cl)cc2)cc1O [NUCC-0198323] | + (>40 +)
15 | Cn1nc(-c2ccc(OCc3ccc(Cl)cc3)c(-c3cccc(C#N)c3)c2O)cc1C(F)(F)F [NUCC-0198400] | + (>40 +)
16 | CS(=O)(=O)c1cccc(-c2c(OCc3ccc(Cl)cc3)ccc(-c3cc(C(F)(F)F)n[nH]3)c2O)c1 [NUCC-0201036] | ++ (30-40 ++)
17 | COc1ccc(-c2c(C)nn(C)c2-c2ccc(OCc3ccc(Cl)cc3)cc2O)cc1 [NUCC-0198306] | + (>40 +)
18 | COc1ccccc1-c1c[nH]nc1-c1ccc(OCc2ccc(Cl)cc2)cc1O [NUCC-0198357] | + (>40 +)
19 | CC(C)CCOc1ccc(-c2cc(C(F)(F)F)[nH]n2)c(O)c1-c1ccc(Cl)c(C(F)(F)F)c1 [NUCC-0201634] | ++ (30-40 ++)
20 | Oc1cc(OCc2ccc(Cl)cc2)ccc1-c1n[nH]cc1-c1cccc(Cl)c1 [NUCC-0196350] | +++ (10-30 +++)
21 | Cn1nc(-c2ccc(Nc3ccc4c(c3)OCO4)cc2O)cc1C(F)(F)F [NUCC-0200562] | + (>40 +)
22 | N#Cc1cncc(-c2c(OCc3ccc(Cl)cc3)ccc(-c3cc(C(F)(F)F)n[nH]3)c2O)c1 [NUCC-0201038] | ++++ (<10 ++++)
23 | Cn1cc(-c2cnc(OCc3ccc(Cl)cc3)cn2)c(C(F)(F)F)n1 [NUCC-0200747] | + (>40 +)

Row | Compound | Potency code
24 | COc1ccc(-c2c(-c3ccc(OCc4ccc(Cl)cc4)cc3O)nn(C)c2C(F)(F)F)cc1 [NUCC-0196340] | ++ (30-40 ++)
25 | CCCCOc1ccc(-c2cc(C(F)(F)F)n(C)n2)c(O)c1-c1ccc(Cl)c(C(F)(F)F)c1 [NUCC-0201227] | ++++ (<10 ++++)
26 | Cn1nc(C(F)(F)F)cc1-c1ccc(OCCCNC(=O)COCCOCCOCCn2cc(COc3cccc4c3C(=O)N(C3CCC(=O)NC3=O)C4=O)nn2)c(-c2ccc(Cl)c(C(F)(F)F)c2)c1O (centres unmarked) [NUCC-0201702] | + (>40 +)
27 | Cc1ccc(-c2c(C(F)(F)F)n[nH]c2-c2cc(OCc3ccc(Cl)cc3)ccc2O)cc1 [NUCC-0200572] | + (>40 +)
28 | Cn1nc(-c2ccc(OCc3ccc(Cl)cc3)cc2O)c(-c2ccccc2)c1C(F)(F)F [NUCC-0198297] | + (>40 +)
29 | NCCOc1ccc(-c2cc(C(F)(F)F)n[nH]2)c(O)c1-c1ccc(Cl)c(C(F)(F)F)c1 [NUCC-0201640] | + (>40 +)
30 | COc1ccc(-c2c(-c3ccc(O)cc3O)n[nH]c2C(F)(F)F)cc1OC [NUCC-0200496] | + (>40 +)
31 | CCc1ccc(Oc2c(-c3ccc(OCc4ccc(Cl)c(Cl)c4)cc3O)n[nH]c2C(F)(F)F)cc1 [NUCC-0196355] | +++ (10-30 +++)
32 | Cc1cc(C)cc(-c2cn(C)nc2-c2ccc(OCc3ccc(Cl)cc3)cc2O)c1 [NUCC-0198353] | + (>40 +)
33 | CCc1ccc(Oc2c(-c3ccccc3O)n[nH]c2C(F)(F)F)cc1 [NUCC-0200683] | +++ (10-30 +++)
34 | Oc1cc(OCc2ccc(Cl)cc2)ccc1-c1n[nH]cc1Oc1ccccc1Cl [NUCC-0196343] | + (>40 +)
35 | Cn1nc(-c2ccc(OCc3ccc(C#N)cc3)c(-c3ccc(Cl)c(C(F)(F)F)c3)c2O)cc1C(F)(F)F [NUCC-0201912] | + (>40 +)
36 | CCc1ccc(Oc2c(-c3ccc(OCc4ccc(Cl)cc4)cc3O)n[nH]c2CC)cc1 [NUCC-0196282] | + (>40 +)
37 | Oc1c(-c2cc(C(F)(F)F)[nH]n2)ccc(OCc2ccc(Cl)cc2)c1-c1cccc(C(F)(F)F)c1 [NUCC-0200730] | + (>40 +)
38 | CCCCOc1ccc(-c2cc(C(F)(F)F)n[nH]2)c(O)c1-c1cc(C(F)(F)F)cc(C(F)(F)F)c1 [NUCC-0201031] | + (>40 +)
39 | COc1ccc(-c2c(-c3ccc(OCc4ccc(Cl)cc4)cc3O)noc2C(F)(F)F)cc1OC [NUCC-0196306] | + (>40 +)
40 | CN/N=C(/C)c1ccc(-c2c(OCc3ccc(Cl)cc3)ccc(-c3cc(C(F)(F)F)nn3C)c2O)cc1 [NUCC-0198396] | + (>40 +)
41 | CCOc1ncc(C(F)(F)F)cc1-c1c(OCc2ccc(Cl)cc2)ccc(-c2cc(C(F)(F)F)n[nH]2)c1O [NUCC-0201039] | +++ (10-30 +++)
42 | CCc1nn(C)c(-c2ccc(OCc3ccc(Cl)cc3)cc2O)c1-c1cccc(OC)c1 [NUCC-0198316] | + (>40 +)
43 | CCc1ccc(Oc2c(-c3ccc(OCCc4ccc(Cl)cc4)cc3O)n[nH]c2C(F)(F)F)cc1 [NUCC-0196357] | +++ (10-30 +++)
44 | Cn1nc(-c2ccc(O)c(-c3cc(C(F)(F)F)cc(C(F)(F)F)c3)c2O)cc1C(F)(F)F [NUCC-0200724] | + (>40 +)
45 | O=CNc1ccc(Nc2ccc(-c3cc(C(F)(F)F)[nH]n3)c(O)c2)cc1 [NUCC-0200563] | + (>40 +)
46 | Cn1nc(-c2ccc(OCc3cccnc3)c(-c3cc(C(F)(F)F)cc(C(F)(F)F)c3)c2O)cc1C(F)(F)F [NUCC-0201023] | + (>40 +)

Row | Compound | Potency code
47 | Cn1nc(C(F)(F)F)cc1-c1ccc(OCc2ccc(Cl)cc2)c(-c2ccc(C#N)cc2)c1O [NUCC-0198392] | + (>40 +)
48 | Oc1cc(OCc2ccc(Cl)cc2)ccc1-c1n[nH]cc1-c1cc(C(F)(F)F)cc(C(F)(F)F)c1 [NUCC-0198318] | ++ (30-40 ++)
49 | Cc1ccccc1-c1cn(C)nc1-c1ccc(OCc2ccc(Cl)cc2)cc1O [NUCC-0198356] | + (>40 +)
50 | O=C(COCCOCCOCCn1cc(COc2cccc3c2C(=O)N(C2CCC(=O)NC2=O)C3=O)nn1)NCCOc1ccc(-c2cc(C(F)(F)F)n[nH]2)c(O)c1-c1cncc(C(F)(F)F)c1 (centres unmarked) [NUCC-0201704] | + (>40 +)
51 | COc1ccc(-c2cc(C(F)(F)F)[nH]n2)c(O)c1-c1cc(C(F)(F)F)cc(C(F)(F)F)c1 [NUCC-0201220] | ++++ (<10 ++++)
52 | Cc1ccc(C)c(Oc2c[nH]nc2-c2ccc(OCc3cccc(Cl)c3)cc2O)c1 [NUCC-0196286] | + (>40 +)
53 | CCOC(=O)c1cc(-c2ccc(OCc3ccc(Cl)cc3)c(-c3ccc(C#N)cc3)c2O)n[nH]1 [NUCC-0200489] | + (>40 +)
54 | N#Cc1cc(-c2ccc(Nc3ccc(Cl)cc3)cc2O)n[nH]1 [NUCC-0200678] | + (>40 +)
55 | CC(C)CCOc1ccc(-c2cc(C(F)(F)F)n[nH]2)c(O)c1-c1cncc(C#N)c1 [NUCC-0201195] | ++++ (<10 ++++)
56 | Oc1cc(OCc2ccc(Cl)cc2)ccc1-c1n[nH]cc1-c1ccoc1 [NUCC-0198322] | ++ (30-40 ++)
57 | COc1ccc(-c2c(-c3ccc(OCc4ccc(Cl)cc4)cc3O)nn(C)c2C)cc1 [NUCC-0198307] | + (>40 +)
58 | Oc1c(-c2cc(C(F)(F)F)[nH]n2)ccc(OCc2ccc(Cl)cc2)c1-c1cccnc1 [NUCC-0196366] | + (>40 +)
59 | COc1cccc(-c2c(-c3ccc(OCc4ccc(Cl)cc4)cc3O)nn(C)c2C)c1 [NUCC-0198314] | + (>40 +)
60 | Cn1nc(C(F)(F)F)cc1-c1ccc(OCc2ccc(Cl)cc2)cc1O [NUCC-0198412] | + (>40 +)
61 | CCc1c(-c2cccc(OC)c2)c(-c2ccc(OCc3ccc(Cl)cc3)cc2O)nn1C [NUCC-0198317] | + (>40 +)
62 | NC(=O)c1cccc(-c2c(OCc3ccc(Cl)cc3)ccc(-c3cc(C(F)(F)F)[nH]n3)c2O)c1 [NUCC-0198401] | + (>40 +)
63 | Cn1cc(-c2cccnc2)c(-c2ccc(OCc3ccc(Cl)cc3)cc2O)n1 [NUCC-0198321] | + (>40 +)
64 | COc1ccc(-c2cc(C(F)(F)F)n(C)n2)c(O)c1-c1cc(C(F)(F)F)cc(C(F)(F)F)c1 [NUCC-0201221] | + (>40 +)
65 | CCc1ccc(Oc2c[nH]nc2-c2ccc(OCC3CCCCC3)cc2O)cc1 [NUCC-0176256] | + (>40 +)
66 | Cn1nc(C(F)(F)F)cc1-c1ccc(OCCCNC(=O)COCCOCCOCCn2cc(COc3cccc4c3C(=O)N(C3CCC(=O)NC3=O)C4=O)nn2)c(-c2cncc(C(F)(F)F)c2)c1O (centres unmarked) [NUCC-0201703] | + (>40 +)
67 | Cc1ccc(C)c(Oc2cn(C)nc2-c2ccc(OCc3cccc(Cl)c3)cc2O)c1 [NUCC-0196287] | + (>40 +)
68 | Cn1nc(-c2ccc(OCc3ccc(Cl)cc3)c(-c3ccc(F)c(C(F)(F)F)c3)c2O)cc1C(F)(F)F [NUCC-0200736] | + (>40 +)
